Laboratory results reported in US20100105688A1, “PHARMACEUTICAL COMPOSITIONS COMPRISING 3,5-DIAMINO-6-(2,3-DICHLOPHENYL)-1,2,4-TRIAZINE OR R(-)-2,4-DIAMINO-5-(2,3-DICHLOROPHENYL)-6-FLUOROMETHYL PYRIMIDINE AND AN NK1” (GLAXO GROUP LIMITED, priority 2007, published 2010).
Where two headings read alike, the source gives them in different places.

Test: Blood and brain concentrations in satellite animals of the MEST study
Assay type: in vivo, rat
Conditions: satellite rats; for concentration at 60 min: rat, po, n = 1
Description: Satellite animals (n=3/group) received the same drugs or combinations of drugs as the test groups, and were culled at the appropriate time after dosing. Blood and brain samples were taken for analysis of the drug concentrations in these compartments.
All doses were calculated as base. ENa9 and ENa13 were dosed via the subcutaneous (s.c.) route at 1 ml/kg in a 2% v/v DMSO/saline vehicle 30 minutes prior to test. ENa7 and ENa14 were dosed orally (p.o.) in a 1% w/v methylcellulose/water vehicle at 2 ml/kg, 60 minutes before test. Compound ENK6 was dosed with via the intraperitoneal (i.p.) route 60 minutes before the test or via the s.c. route 15 minutes before test. In both cases ENK6 was dissolved in saline.

[1] = ENK6 10 mg/kg s.c. + ENa7 1 mg/kg p.o., n = 2-3
[2] = ENK6 10 mg/kg s.c. + ENa7 3 mg/kg p.o., n = 2-3
[3] = ENK6 30 mg/kg s.c. + ENa7 1 mg/kg p.o., n = 2
[4] = ENK6 30 mg/kg s.c. + ENa7 3 mg/kg p.o., n = 2

concentration at 60 min (blood, 1 mg/kg, ENK6 veh + ENa7 1 mg/kg p.o. (Table 3), read-out: Blood concentration): 311 ng/mL
concentration at 60 min (blood, 1 mg/kg, ENK6 veh + ENa7 1 mg/kg p.o. (Table 4), read-out: Blood concentration): 352 ng/mL
concentration at 60 min (blood, 3 mg/kg, ENK6 veh + ENa7 3 mg/kg p.o. (Table 3), read-out: Blood concentration): 1180 ng/mL
concentration at 60 min (blood, 3 mg/kg, ENK6 veh + ENa7 3 mg/kg p.o. (Table 4), read-out: Blood concentration): 1350 ng/mL
concentration at 60 min (brain, 1 mg/kg, ENK6 veh + ENa7 1 mg/kg p.o. (Table 3), read-out: Brain concentration): 517 ng/g
concentration at 60 min (brain, 1 mg/kg, ENK6 veh + ENa7 1 mg/kg p.o. (Table 4), read-out: Brain concentration): 588 ng/g
concentration at 60 min (brain, 3 mg/kg, ENK6 veh + ENa7 3 mg/kg p.o. (Table 3), read-out: Brain concentration): 2830 ng/g
concentration at 60 min (brain, 3 mg/kg, ENK6 veh + ENa7 3 mg/kg p.o. (Table 4), read-out: Brain concentration): 2190 ng/g
Blood concentration [1]: 581 ng/mL
Brain concentration [1]: 1125 ng/g
Blood concentration [2]: 1603 ng/mL
Brain concentration [2]: 2855 ng/g
Blood concentration [3]: 461 ng/mL
Brain concentration [3]: 752 ng/g
Blood concentration [4]: 1404 ng/mL
Brain concentration [4]: 2096 ng/g
Compound: Nc1nnc(-c2cccc(Cl)c2Cl)c(N)n1 [ENa7, 3,5-diamino-6-(2,3-dichlorophenyl)-1,2,4-triazine, reference compound]
